Tests used:
[1] = system: giant foxtail; test: Test B pre/postemergence giant foxtail; type: in vivo, Setaria faberii
Outline: (§1)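 Herbicidal effect was estimated by eye on a ten-point control scale after plants spent twelve to sixteen days in a greenhouse following soil or foliar treatment. Foliar sprays targeted plants at one to four leaves; all doses were formulated in a non-phytotoxic solvent with surfactant.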

[2] = system: pigweed; test: Test B pre/postemergence pigweed; type: in vivo, Amaranthus retroflexus
Outline: as §1

[3] = system: morningglory; test: Test B pre/postemergence morningglory; type: in vivo, Ipomoea hederacea
Outline: as §1

[4] = system: rape; test: Test B pre/postemergence rape; type: in vivo, Brassica napus
Outline: as §1

[5] = Postemergence, Rate 62 g/ha, scale 0 to 10, 0 is no effect, 10 is complete control
[6] = Postemergence, Rate 250 g/ha, scale 0 to 10, 0 no effect, 10 complete control
[7] = Preemergence, Rate 62 g/ha, scale 0 to 10, 0 is no effect, 10 is complete control
[8] = Preemergence, Rate 125 g/ha, scale 0 to 10 (0 no effect, 10 complete control)
[9] = Preemergence, Rate 250 g/ha, scale of 0 to 10 where 0 is no effect and 10 is complete control
[10] = Preemergence, Rate 500 g/ha, scale 0 (no effect) to 10 (complete control)
[11] = Rate 125 g/ha, Postemergence, scale 0 to 10, 0 no effect, 10 complete control
[12] = Rate 500 g/ha, Postemergence, 0 to 10 scale (0 no effect, 10 complete control)
[13] = Preemergence, Rate 62 g/ha, scale of 0 to 10 where 0 is no effect and 10 is complete control
[14] = Rate 62 g/ha, Postemergence, scale 0 to 10 (0 no effect, 10 complete control)
[15] = Rate 125 g/ha, Postemergence, scale of 0 to 10 where 0 is no effect and 10 is complete control
[16] = Rate 250 g/ha, Postemergence, scale of 0 to 10 where 0 is no effect and 10 is complete control
[17] = Preemergence, Rate 500 g/ha, scale of 0 to 10 where 0 is no effect and 10 is complete control
[18] = Postemergence, Rate 62 g/ha, scale of 0 to 10, 0 is no effect, 10 is complete control
[19] = Postemergence, Rate 125 g/ha, scale 0 to 10, 0 is no effect, 10 is complete control
[20] = Postemergence, Rate 500 g/ha, scale of 0 to 10 where 0 is no effect and 10 is complete control
[21] = Preemergence, Rate 62 g/ha, scale 0 to 10 (0 no effect, 10 complete control)
[22] = Preemergence, Rate 125 g/ha, scale 0 to 10, 0 is no effect, 10 is complete control
[23] = Rate 500 g/ha, Postemergence, scale 0 to 10, 0 no effect, 10 complete control
[24] = Postemergence, Rate 250 g/ha, scale 0 to 10
[25] = Preemergence, Rate 125 g/ha, scale of 0 to 10 where 0 is no effect and 10 is complete control
[26] = Preemergence, Rate 250 g/ha, scale 0 to 10, 0 is no effect, 10 is complete control
[27] = Preemergence, Rate 500 g/ha, scale 0 to 10, 0 is no effect, 10 is complete control
[28] = Rate 125 g/ha, Postemergence, scale 0 to 10, 0 is no effect, 10 is complete control

CC(C)N(C(=O)n1oc(=O)n(-c2ccccc2OC(F)(F)F)c1=O)c1ccc(F)cc1 [Compound 14]
Giant foxtail plant response rating [1, 5]: 0
Giant foxtail plant response rating [1, 6]: 0
Plant response rating, Giant foxtail [1, 7]: 6
Plant response rating, Giant foxtail [1, 8]: 9
Plant response rating, Giant foxtail [1, 9]: 9
Giant foxtail plant response rating [1, 10]: 9
Giant foxtail plant response rating [1, 11]: 0
Giant foxtail plant response rating [1, 12]: 3
Redroot pigweed plant response rating [2, 5]: 0
Redroot pigweed plant response rating [2, 6]: 3
Plant response rating, Redroot pigweed [2, 7]: 0
Plant response rating, Redroot pigweed [2, 8]: 0
Plant response rating, Redroot pigweed [2, 9]: 0
Redroot pigweed plant response rating [2, 10]: 6
Redroot pigweed plant response rating [2, 11]: 2
Redroot pigweed plant response rating [2, 12]: 6
Morningglory plant response rating [3, 5]: 1
Morningglory plant response rating [3, 6]: 4
Plant response rating, Morningglory [3, 7]: 0
Plant response rating, Morningglory [3, 8]: 0
Plant response rating, Morningglory [3, 9]: 0
Morningglory plant response rating [3, 10]: 0
Morningglory plant response rating [3, 11]: 2
Morningglory plant response rating [3, 12]: 6
Rape plant response rating [4, 5]: 0
Rape plant response rating [4, 6]: 0
Plant response rating, Rape [4, 7]: 0
Plant response rating, Rape [4, 8]: 0
Plant response rating, Rape [4, 9]: 0
Rape plant response rating [4, 10]: 0
Rape plant response rating [4, 11]: 0
Rape plant response rating [4, 12]: 0

CCN(C(=O)n1oc(=O)n(C2CC2)c1=O)C1CCCCC1 [Compound 298]
Giant foxtail plant response rating [1, 13]: 0
Giant foxtail plant response rating (0 to 10 scale) ([1]; Preemergence, Rate 125 g/ha): 0
Giant foxtail plant response rating [1, 14]: 0
Giant foxtail plant response rating [1, 15]: 0
Plant response rating, Giant foxtail [1, 16]: 0
Redroot pigweed plant response rating [2, 13]: 0
Redroot pigweed plant response rating (0 to 10 scale) ([2]; Preemergence, Rate 125 g/ha): 0
Redroot pigweed plant response rating [2, 9]: 0
Plant response rating, Redroot pigweed [2, 17]: 0
Redroot pigweed plant response rating [2, 14]: 0
Redroot pigweed plant response rating [2, 15]: 0
Plant response rating, Redroot pigweed [2, 16]: 0
Morningglory plant response rating [3, 13]: 0
Morningglory plant response rating (0 to 10 scale) ([3]; Preemergence, Rate 125 g/ha): 0
Morningglory plant response rating [3, 9]: 0
Plant response rating, Morningglory [3, 17]: 0
Morningglory plant response rating [3, 14]: 0
Morningglory plant response rating [3, 15]: 3
Plant response rating, Morningglory [3, 16]: 3
Rape plant response rating [4, 13]: 0
Rape plant response rating (0 to 10 scale) ([4]; Preemergence, Rate 125 g/ha): 0
Rape plant response rating [4, 9]: 0
Plant response rating, Rape [4, 17]: 0
Rape plant response rating [4, 14]: 0
Rape plant response rating [4, 15]: 0
Plant response rating, Rape [4, 16]: 0

CC(C)N(C(=O)n1oc(=O)n(CCc2ccccc2)c1=O)c1ccccc1 [Compound 567]
Giant foxtail plant response rating [1, 18]: 0
Giant foxtail plant response rating [1, 19]: 0
Plant response rating, Giant foxtail [1, 20]: 0
Giant foxtail plant response rating [1, 21]: 3
Giant foxtail plant response rating [1, 22]: 9
Giant foxtail plant response rating (0 to 10 scale) ([1]; Preemergence, Rate 250 g/ha): 10
Giant foxtail plant response rating [1, 17]: 9
Plant response rating, Giant foxtail [1, 16]: 0
Plant response rating, Redroot pigweed [2, 20]: 0
Redroot pigweed plant response rating [2, 21]: 0
Redroot pigweed plant response rating [2, 22]: 0
Redroot pigweed plant response rating (0 to 10 scale) ([2]; Preemergence, Rate 250 g/ha): 8
Redroot pigweed plant response rating [2, 17]: 9
Plant response rating, Redroot pigweed [2, 16]: 0
Morningglory plant response rating [3, 18]: 0
Morningglory plant response rating [3, 19]: 4
Plant response rating, Morningglory [3, 20]: 10
Morningglory plant response rating [3, 21]: 0
Morningglory plant response rating [3, 22]: 0
Morningglory plant response rating (0 to 10 scale) ([3]; Preemergence, Rate 250 g/ha): 0
Morningglory plant response rating [3, 17]: 0
Plant response rating, Morningglory [3, 16]: 4
Rape plant response rating [4, 18]: 0
Rape plant response rating [4, 19]: 0
Plant response rating, Rape [4, 20]: 0
Rape plant response rating [4, 21]: 0
Rape plant response rating [4, 22]: 0
Rape plant response rating (0 to 10 scale) ([4]; Preemergence, Rate 250 g/ha): 0
Rape plant response rating [4, 17]: 0
Plant response rating, Rape [4, 16]: 0

COc1cccc(C)c1-n1c(=O)on(C(=O)N(c2ccc(F)cc2)C(C)C)c1=O [Compound 62]
Giant foxtail plant response rating [1, 5]: 0
Giant foxtail plant response rating [1, 6]: 0
Giant foxtail plant response rating [1, 21]: 5
Plant response rating, Giant foxtail [1, 8]: 5
Plant response rating, Giant foxtail [1, 9]: 9
Giant foxtail plant response rating [1, 10]: 10
Giant foxtail plant response rating [1, 11]: 0
Giant foxtail plant response rating [1, 23]: 2
Redroot pigweed plant response rating [2, 5]: 0
Redroot pigweed plant response rating [2, 6]: 0
Redroot pigweed plant response rating [2, 21]: 0
Plant response rating, Redroot pigweed [2, 8]: 0
Plant response rating, Redroot pigweed [2, 9]: 0
Redroot pigweed plant response rating [2, 10]: 0
Redroot pigweed plant response rating [2, 11]: 0
Redroot pigweed plant response rating [2, 23]: 0
Morningglory plant response rating [3, 5]: 2
Morningglory plant response rating [3, 6]: 2
Morningglory plant response rating [3, 21]: 0
Plant response rating, Morningglory [3, 8]: 0
Plant response rating, Morningglory [3, 9]: 0
Morningglory plant response rating [3, 10]: 3
Morningglory plant response rating [3, 11]: 2
Morningglory plant response rating [3, 23]: 6
Rape plant response rating [4, 5]: 0
Rape plant response rating [4, 6]: 0
Rape plant response rating [4, 21]: 0
Plant response rating, Rape [4, 8]: 0
Plant response rating, Rape [4, 9]: 0
Rape plant response rating [4, 10]: 0
Rape plant response rating [4, 11]: 0
Rape plant response rating [4, 23]: 0

COC(OC)C(C)n1c(=O)on(C(=O)N(c2ccc(F)cc2)C(C)C)c1=O (centres unmarked) [Compound 471]
Giant foxtail plant response rating [1, 24]: 7
Giant foxtail plant response rating [1, 20]: 8
Plant response rating, Giant foxtail [1, 13]: 10
Plant response rating, Giant foxtail [1, 25]: 10
Giant foxtail plant response rating [1, 26]: 10
Giant foxtail plant response rating [1, 27]: 10
Giant foxtail plant response rating [1, 14]: 0
Giant foxtail plant response rating [1, 28]: 1
Redroot pigweed plant response rating [2, 24]: 2
Plant response rating, Redroot pigweed [2, 13]: 10
Plant response rating, Redroot pigweed [2, 25]: 10
Redroot pigweed plant response rating [2, 26]: 10
Redroot pigweed plant response rating [2, 27]: 10
Redroot pigweed plant response rating [2, 14]: 0
Redroot pigweed plant response rating [2, 28]: 0
Morningglory plant response rating [3, 24]: 4
Plant response rating, Morningglory [3, 13]: 0
Plant response rating, Morningglory [3, 25]: 0
Morningglory plant response rating [3, 26]: 0
Morningglory plant response rating [3, 27]: 0
Morningglory plant response rating [3, 14]: 3
Morningglory plant response rating [3, 28]: 3
Rape plant response rating [4, 24]: 0
Plant response rating, Rape [4, 13]: 2
Plant response rating, Rape [4, 25]: 2
Rape plant response rating [4, 26]: 7
Rape plant response rating [4, 27]: 10
Rape plant response rating [4, 14]: 0
Rape plant response rating [4, 28]: 0

From patent publication US6737383B1, “Herbicidal oxadiazolidines” (priority 1999, dated 2004)
